Measured values published in US8258256B2, “Compositions and methods for the treatment of cancer” (The Johns Hopkins University, priority 2006, dated 2012).
Bridge positions count the residues as written; N and C are the ends. Primed or numbered codes have the meaning given here. Ends that are not written are not given here. Peptide text beside a SMILES is read from it. I, II: the chains in the order shown. * marks the point of attachment. Biotin = O=C1N[C@H]2[C@H](CS[C@H]2CCCCC(=O)*)N1; FITC′ = fluorescein isothiocyanate label

Legend:
His-PSMA [1] = biological target: T1, His-PSMA (Homo sapiens, UniProt Q04609); conditions: substrate hydrolysis by PSMA, reference (21); cited from earlier work
T1 construct: made in house; host or cells: Drosophila Schneider's S2 cells, vector pMT/BiP/V5-HisA (pMT-His-PSMA), purified from conditioned media on Ni-NTA

His-PSMA [2] = biological target: T1, His-PSMA; assay: PSMA enzymatic assay (NAALADase activity, 3H-NAAG hydrolysis); assay type: biochemical; conditions: ratio of inhibitory potency, dimeric vs monomeric peptide
Protocol: FIG. 4 depicts the inhibition of NAALADase activity of PSMA by monomeric and dimeric peptides. His-PSMA hydrolysis of ^3H-NAAG was assayed as described in the methods in the absence or presence of indicated concentration of monomeric or dimeric peptide. After 15 min incubation at 37° C. amount of released 3H-Glu was determined. Percent inhibition is the ratio of amount of 3H-Glu released in presence of peptide compared to control (i.e. His-PSMA only). Data plotted are average of duplicate experiments and best fit line is included.
(§1) PSMA Enzymatic Assay The enzymatic activity assay for PSMA was adapted as previously described by Tiffany et al. (21). PSMA (5 nM) incubated with or without peptides was added to PSMA assay buffer (10 mM CoCl2, 50 mM Tris, pH 7.4). Following a 30 mins incubation at 37° C., N-acetyl-aspartyl-3H glutamate (3H-NAAG) (NEN, Boston, Mass.) was added to final concentration of 25 nM and reactions incubated for 15 mins at 37° C. Data were collected during linear phase of hydrolysis (i.e. less than 20% cleavage of total substrate).

PSMA = biological target: T2, PSMA (Homo sapiens, UniProt Q04609); assay: Soluble biotinylated peptide binding to immobilized PSMA or BSA; conditions: biotinylated peptide incubated with immobilized PSMA (0.625 μgs) or BSA
T2 construct: made in house; host or cells: Drosophila Schneider's S2 cells, vector pMT/BiP/V5-HisA (pMT-His-PSMA), purified from conditioned media on Ni-NTA
Protocol: FIGS. 3A-B depict (A) Soluble […] (Biotin) (SEQ ID NO: 37) peptide binding to BSA and PSMA. Recombinant PSMA (0.625 μgs) and BSA (25 μgs/ml) were immobilized and indicated concentrations of the biotinylated […] (SEQ ID NO:1) peptide were incubated with immobilized PSMA or BSA. […] (B) Comparison of PSMA binding to monomeric (SEQ ID NO: 37) and dimeric (core peptide disclosed as SEQ ID NO: 1) form of the […] (SEQ ID NO:1) peptide. Biotin labeled monomeric and dimeric peptide were immobilized on streptavidin-coated plates then incubated with His-PSMA (100 nM). Results are the mean binding in 4 replicate wells each ±S.D.
Soluble Synthetic […] (SEQ ID NO:1) peptide binds selectively to PSMA—On the basis of the phage binding results, the […] (SEQ ID NO:1) peptide was synthesized with biotin coupled to the C-terminus.

[3] = biological target: T3, full length membrane bound form of PSMA (Homo sapiens, UniProt Q04609); assay: NAAG hydrolysis assay with cell lysates from PSMA-producing LNCaP; assay type: biochemical; conditions: peptide at 60 μM
T3 construct: endogenous in cells; host or cells: LNCaP cell lysate
Protocol: as §1
[…] (SEQ ID NO:1) peptide inhibits PSMA's enzyme activity—Functionally, PSMA has been classified as a glutamate carboxypeptidase II (25) with activity as both an N-acetylated α-linked acidic dipeptidase (NAALADase) (26) and as a pteroyl poly-γ-glutamyl carboxypeptidase (i.e. folate hydrolase) (27). […] Therefore, the monomeric and dimeric […] (SEQ ID NO:1) peptides were incubated initially with PSMA for 30 mins and then ^3H NAAG substrate was added to prevent any NAAG hydrolysis before the peptide is able to bind to PSMA. Control peptides included the […] (SEQ ID NO: 22) peptide and a short peptide HHWA (SEQ ID NO: 26) containing the apparent consensus motif from the phage display. […] In a second experiment, cell lysates from PSMA-producing LNCaP were used instead of purified recombinant His-PSMA.

[4] = tested on: PSMA-positive (LNCaP, CWR22R) human prostate cancer cells; assay: Fluorescent peptide binding to PSMA-positive prostate cancer cells (confocal microscopy); assay type: cell-based
Protocol: FIG. 5 depicts dimeric […] (SEQ ID NO:1) peptide binds selectively to PSMA-producing prostate cancer cells. Attached PSMA-positive (LNCaP, CWR22R) and PSMA-negative (PC-3, DU145) human prostate cancer were prelabeled with Orange Cell Tracker (Invitrogen) at 2.5 μM in RPMI for 30 mins. After washing with Hanks balanced salt solution, cells were incubated with FITC-labeled monomeric (50 μM) or dimeric (5 μM) […] (SEQ ID NO:1) peptide in 1% fetal calf serum containing media for 1 hr. Cells were washed 3 times with PBS and fixed with 1% Formalin for ½ hr at room temperature. Cells were visualized using Zeiss Meta 510 confocal microscope at 20× magnification. Top panels show orange cell tracker labeled cells (rhodamine filter set); middle panels show labeled peptide binding (FITC filter set); bottom panel show overlay of both panels.
Binding of […] (SEQ ID NO:1) peptides to PSMA-expressing cell lines—To analyze peptide binding to membrane bound PSMA, fluorescently labeled peptides were synthesized by coupling FITC to the C-terminus of either the monomeric or dimeric peptide. […] In contrast, cell binding of the dimeric […] (SEQ ID NO:1) peptide could be easily visualized at concentrations as low as 5 μM, FIG. 5. Labeled, dimeric peptide bound to a similar degree to both CWR22R and LNCAP.

T1 sequence (Q04609 44-750 limits assumed): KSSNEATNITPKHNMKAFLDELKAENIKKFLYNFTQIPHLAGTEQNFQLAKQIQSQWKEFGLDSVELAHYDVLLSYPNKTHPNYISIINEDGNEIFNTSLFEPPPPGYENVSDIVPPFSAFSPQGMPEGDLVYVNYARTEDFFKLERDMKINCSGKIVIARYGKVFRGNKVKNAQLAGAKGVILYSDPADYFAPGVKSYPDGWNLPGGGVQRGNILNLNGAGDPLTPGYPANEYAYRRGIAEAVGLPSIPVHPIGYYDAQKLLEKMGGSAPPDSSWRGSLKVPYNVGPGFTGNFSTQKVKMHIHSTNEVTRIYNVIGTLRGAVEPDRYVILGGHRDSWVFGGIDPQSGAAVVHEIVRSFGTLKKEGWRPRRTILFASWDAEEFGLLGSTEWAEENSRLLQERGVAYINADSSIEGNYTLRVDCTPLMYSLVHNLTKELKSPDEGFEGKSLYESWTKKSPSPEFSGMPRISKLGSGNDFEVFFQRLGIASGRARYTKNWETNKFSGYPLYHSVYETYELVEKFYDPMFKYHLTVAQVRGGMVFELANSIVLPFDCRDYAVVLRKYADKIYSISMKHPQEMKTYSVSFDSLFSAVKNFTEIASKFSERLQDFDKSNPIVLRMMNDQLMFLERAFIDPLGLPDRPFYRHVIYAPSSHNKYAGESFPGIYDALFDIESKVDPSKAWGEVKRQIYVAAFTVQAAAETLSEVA
T2 sequence (Q04609 44-750 limits assumed): as above
T3 sequence (Q04609 whole entry): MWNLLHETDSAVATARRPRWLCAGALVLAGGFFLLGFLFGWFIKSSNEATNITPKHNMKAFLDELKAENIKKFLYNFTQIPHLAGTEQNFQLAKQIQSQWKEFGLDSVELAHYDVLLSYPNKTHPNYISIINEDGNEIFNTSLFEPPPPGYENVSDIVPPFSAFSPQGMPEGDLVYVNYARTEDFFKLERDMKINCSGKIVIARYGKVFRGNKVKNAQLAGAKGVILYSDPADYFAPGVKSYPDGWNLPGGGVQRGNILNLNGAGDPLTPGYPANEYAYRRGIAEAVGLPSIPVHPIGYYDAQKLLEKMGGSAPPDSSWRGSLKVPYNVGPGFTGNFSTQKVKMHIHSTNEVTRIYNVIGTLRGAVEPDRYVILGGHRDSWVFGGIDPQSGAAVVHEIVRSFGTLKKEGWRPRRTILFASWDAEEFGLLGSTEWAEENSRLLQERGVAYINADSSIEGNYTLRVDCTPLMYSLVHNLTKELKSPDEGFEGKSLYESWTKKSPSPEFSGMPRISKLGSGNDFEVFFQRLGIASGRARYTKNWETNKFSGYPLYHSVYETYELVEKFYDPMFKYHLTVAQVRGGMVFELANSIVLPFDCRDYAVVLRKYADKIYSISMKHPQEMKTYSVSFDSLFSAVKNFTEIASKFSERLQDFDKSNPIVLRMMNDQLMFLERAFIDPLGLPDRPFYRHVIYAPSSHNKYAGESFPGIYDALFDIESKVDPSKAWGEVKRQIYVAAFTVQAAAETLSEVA

CC(=O)N[C@@H](CC(=O)O)C(=O)N[C@@H](CCC(=O)O)C(=O)O [^3H NAAG, N-acetyl-aspartyl-3H glutamate] (Ac-Asp-Glu-OH)
Km (His-PSMA [1]): 0.43 µM
kcat for PSMA (His-PSMA [1]): 0.6 s⁻¹

CC(C)C[C@H](NC(=O)[C@@H](NC(=O)[C@H](C)NC(=O)[C@H](Cc1c[nH]c2ccccc12)NC(=O)[C@H](Cc1c[nH]cn1)NC(=O)[C@H](Cc1c[nH]cn1)NC(=O)[C@H](C)NC(=O)[C@@H](NC(=O)[C@H](CC(=O)O)NC(=O)[C@@H]1CCCN1C(=O)[C@H](CCC(N)=O)NC(=O)[C@@H](N)Cc1c[nH]c2ccccc12)[C@@H](C)O)[C@@H](C)O)C(=O)NCCCC[C@H](NC(=O)[C@H](CC(C)C)NC(=O)[C@@H](NC(=O)[C@H](C)NC(=O)[C@H](Cc1c[nH]c2ccccc12)NC(=O)[C@H](Cc1c[nH]cn1)NC(=O)[C@H](Cc1c[nH]cn1)NC(=O)[C@H](C)NC(=O)[C@@H](NC(=O)[C@H](CC(=O)O)NC(=O)[C@@H]1CCCN1C(=O)[C@H](CCC(N)=O)NC(=O)[C@@H](N)Cc1c[nH]c2ccccc12)[C@@H](C)O)[C@@H](C)O)C(=O)N[C@@H](CCCCNC(=O)CCCC[C@@H]1SC[C@@H]2NC(=O)N[C@@H]21)C(=O)O (I: H-WQPDTAHHWATLKK(Biotin)-OH / II: H-WQPDTAHHWATL; amide I:13-II:C; N-terminus assumed)
PSMA inhibition of dimer relative to monomer (His-PSMA [2]): ~10 fold

WQPDTAHHWATLK(Biotin)
binding to immobilized PSMA compared to BSA (PSMA): significantly higher binding to PSMA at peptide concentrations of 50 μM and 500 μM

WQPDTAHHWATL-OH
inhibition of PSMA in LNCaP cell lysates [3]: inhibited

QMARIPKRLARHK-biotin [reference compound]
binding to immobilized PSMA compared to BSA (PSMA): no specific binding to immobilized PSMA compared to BSA

FITC-labeled monomeric WQPDTAHHWATL peptide: fluorescently labeled peptide made by coupling FITC to the C-terminus of the monomeric peptide (WQPDTAHHWATL-{FITC′})
cell binding above background autofluorescence ([4]; FITC-labeled peptide at 1, 5, 10, 50 μM): could not be observed at any of the tested concentrations
peptide concentration at which cell binding could be visualized ([4]; FITC-labeled peptide tested at 1, 5, 10, 50 μM, 1% fetal bovine serum media, 1 hr): > 50 µM
